From ChEMBL document CHEMBL3045663, “Synthesis and Activity of Novel Acaricidal/Insecticidal 2, 4-Diphenyl-1, 3-oxazolines” (J Pestic Sci, 2002) come the findings set out here.

Converted amounts (≈) assume the structure as drawn. Bounds are passed on as bounds.

Holding throughout (assay type): functional
Assay [1] relates to Plutella xylostella. In words: Insecticidal activity against Plutella xylostella (diamondback moth) in compound treated radish leaf assessed as mortality at 500 ppm.
For assay [2], the system named is Nephotettix cincticeps. Briefly: Insecticidal activity against Nephotettix cincticeps (green rice leafhopper) in compound treated rice seedlings assessed as mortality at 500 ppm.
For assay [3], the system named is Myzus persicae. Briefly: Insecticidal activity against Myzus persicae (green peach aphid) in compound treated radish leaf assessed as mortality at 500 ppm.
Assay [4] deals with Tetranychus urticae. Briefly: Acaricidal activity against Tetranychus urticae (two-spotted spider mite) in compound treated kidney bean leaf assessed as larvicidal activity.
Assay [5] deals with Tetranychus urticae. In words: Acaricidal activity against Tetranychus urticae (two-spotted spider mite) in compound treated kidney bean leaf assessed as mortality of egg at 1000 ppm at 24 degC measured after 1 week. As to conditions: 168 h.

`CSc1ccccc1C1=NC(c2ccccc2)CO1` (stereo unspecified): the mortality (commonly the percentage killed) at 500 ppm in assay [1] turned out to be 35%; in assay [2] it was 0%; in assay [3], 0%. In addition, the median lethal concentration (LC50) (usually the concentration lethal to half of the exposed cells or organisms) in assay [4] came to 100 µg/mL (≈ 371 µM). Besides, the mortality at 1000 ppm in assay [5] came out at 0%.
On to `Clc1ccc(Cl)c(C2=NC(c3ccccc3)CO2)c1` (stereo unspecified), for which the mortality at 500 ppm in assay [1] stood at 35%; in assay [2], 0%; in assay [3] it was 0%. Moreover, the LC50 in assay [4] amounted to 100 µg/mL (≈ 342 µM). For the same molecule, the mortality at 1000 ppm in assay [5] worked out at 0%.
As for `c1ccc(C2=NC(c3ccccc3)CO2)cc1` (stereo unspecified), the figures for the mortality at 500 ppm in assay [1], in assay [2] and in assay [3] were 60%, 0% and 0%, respectively. In addition, the LC50 in assay [4] is 10 µg/mL (≈ 44.8 µM). Further, the mortality at 1000 ppm in assay [5] was determined as 0%.
On to `CCCCCCCCc1ccc(C2COC(c3c(F)cccc3F)=N2)c(C)c1` (stereo unspecified), for which the mortality at 500 ppm in assay [1], in assay [2] and in assay [3] was 100% in each case. Besides, the LC50 in assay [4] was under 0.001 µg/mL.
With `Fc1cccc(F)c1C1=NC(c2ccc(Br)cc2)CO1` (stereo unspecified), the mortality at 500 ppm came to 35% in assay [1], 10% in assay [2] and 100% in assay [3]. The 50% lethal concentration (LC50) in assay [4] was 0.001 µg/mL (≈ 0.00296 µM).
For `CCCCCCCCCCc1ccc(C2COC(c3c(F)cccc3F)=N2)c(Cl)c1` (stereo unspecified) the same measures were 85%, 0%, 0% and 0.1 µg/mL (≈ 0.23 µM).
As for `CCOc1cc(Cl)ccc1C1COC(c2c(F)cccc2F)=N1` (stereo unspecified), the mortality at 500 ppm in assay [1], in assay [2] and in assay [3] was 100% throughout. The 50% lethal concentration (LC50) in assay [4] was found to be 0.1 µg/mL (≈ 0.296 µM).
`CCOc1cccc(C2COC(c3c(F)cccc3F)=N2)c1` (stereo unspecified): the mortality at 500 ppm in assay [1], in assay [2] and in assay [3] was 0% each time. For the same molecule, the 50% lethal concentration (LC50) in assay [4] stood at 1 µg/mL (≈ 3.3 µM).
For the molecule `CCc1ccc(C2COC(c3c(F)cccc3F)=N2)cc1` (stereo unspecified), the results for the mortality at 500 ppm in assay [1], in assay [2] and in assay [3] were 0%, 60% and 100%, respectively. Besides, the 50% lethal concentration (LC50) in assay [4] was 0.001 µg/mL (≈ 0.00348 µM).
For `Fc1ccc(C2COC(c3c(F)cccc3F)=N2)cc1Cl` (stereo unspecified) the same measures were 60%, 10%, 100% and 0.1 µg/mL (≈ 0.321 µM).
Turning to `Fc1ccc(C2COC(c3c(F)cccc3F)=N2)c(Cl)c1` (stereo unspecified), the mortality at 500 ppm amounted to 0% in assay [1], 35% in assay [2] and 100% in assay [3]. Moreover, in assay [4], the LC50 worked out at 0.1 µg/mL (≈ 0.321 µM).
In the case of `Fc1cccc(F)c1C1=NC(c2ccc(OC(F)(F)F)cc2)CO1` (stereo unspecified), the mortality at 500 ppm in assay [1] came to 85%; in assay [2] it was 35%; in assay [3] it was 100%. Besides, in assay [4], the LC50 was found to be 0.001 µg/mL (≈ 0.00291 µM).
Regarding `CCCCCCCCCCCCCCOc1ccc(C2COC(c3c(F)cccc3F)=N2)cc1` (stereo unspecified), the mortality at 500 ppm in assay [1] came to 85%; in assay [2] it was 10%; in assay [3], 60%. Moreover, the 50% lethal concentration (LC50) in assay [4] stood at 0.01 µg/mL (≈ 0.0212 µM).
For `CC(C)Sc1ccc(C2COC(c3c(F)cccc3F)=N2)cc1` (stereo unspecified), the mortality at 500 ppm in assay [1] was 10%; in assay [2] it was 10%; in assay [3], 85%. Besides, the LC50 in assay [4] was found to be 0.1 µg/mL (≈ 0.3 µM).
On to `CCCCCCc1ccc(C2COC(c3c(F)cccc3F)=N2)c(F)c1` (stereo unspecified), for which the values for the mortality at 500 ppm in assay [1], in assay [2] and in assay [3] were 100%, 60% and 100%, respectively. Moreover, in assay [4], the LC50 is under 0.001 µg/mL.
Take `CC(C)Cc1ccc(C2COC(c3c(F)cccc3F)=N2)cc1` (stereo unspecified): the mortality at 500 ppm in assay [1] was found to be 60%; in assay [2], 0%; in assay [3] it was 100%. Besides, the LC50 in assay [4] was under 0.001 µg/mL.
In the case of `C[Si](C)(C)c1ccc(C2COC(c3c(F)cccc3F)=N2)cc1` (stereo unspecified), the mortality at 500 ppm in assay [1] is 100%; in assay [2], 60%; in assay [3] it was 100%. Further, the median lethal concentration (LC50) in assay [4] was under 0.001 µg/mL.
In the case of `CSc1ccc(C2COC(c3c(F)cccc3F)=N2)cc1` (stereo unspecified), the mortality at 500 ppm in assay [1] turned out to be 0%; in assay [2] it was 0%; in assay [3], 100%. In addition, the median lethal concentration (LC50) in assay [4] was found to be 0.1 µg/mL (≈ 0.327 µM).
`CCCCCCc1ccc(C2COC(c3c(F)cccc3F)=N2)c(Cl)c1` (stereo unspecified): the mortality at 500 ppm in assay [1], in assay [2] and in assay [3] was 100% in each case. In addition, the LC50 in assay [4] was under 0.001 µg/mL.
In the case of `CCCCCCCCCCCCCCCc1ccc(C2COC(c3c(F)cccc3F)=N2)cc1` (stereo unspecified), the results for the mortality at 500 ppm in assay [1], in assay [2] and in assay [3] were 85%, 0% and 0%, respectively. The median lethal concentration (LC50) in assay [4] worked out at 0.001 µg/mL (≈ 0.00213 µM).
Take `CCCCCc1ccc(C2COC(c3c(F)cccc3F)=N2)c(OCC)c1` (stereo unspecified): the figures for the mortality at 500 ppm in assay [1], in assay [2] and in assay [3] were 35%, 100% and 85%, respectively. Moreover, in assay [4], the 50% lethal concentration (LC50) is under 0.001 µg/mL.
As to `Fc1ccc(C2COC(c3c(F)cccc3F)=N2)cc1` (stereo unspecified), the mortality at 500 ppm in assay [1] was 85%; in assay [2] it was 10%; in assay [3] it was 85%. Also, the 50% lethal concentration (LC50) in assay [4] came to 0.1 µg/mL (≈ 0.361 µM).
`CC(C)c1ccc(C2COC(c3c(F)cccc3F)=N2)cc1` (stereo unspecified): the mortality at 500 ppm in assay [1] came out at 0%; in assay [2], 60%; in assay [3], 100%. The LC50 in assay [4] was 0.001 µg/mL (≈ 0.00332 µM).
Take `CCCCCCCCOc1ccc(C2COC(c3c(F)cccc3F)=N2)cc1` (stereo unspecified): the mortality at 500 ppm in assay [1] came to 60%; in assay [2], 0%; in assay [3], 85%. Besides, in assay [4], the LC50 is under 0.001 µg/mL.
As to `CCOc1cc(Br)ccc1C1COC(c2c(F)cccc2F)=N1` (stereo unspecified), the mortality at 500 ppm is 10% in assay [1], 100% in assay [2] and 0% in assay [3]. Moreover, the LC50 in assay [4] is 0.1 µg/mL (≈ 0.262 µM).
For `Oc1ccc(C2COC(c3c(F)cccc3F)=N2)cc1` (stereo unspecified), the mortality at 500 ppm in assay [1] came out at 10%; in assay [2], 60%; in assay [3], 0%. Moreover, the LC50 in assay [4] was determined as 10 µg/mL (≈ 36.3 µM).
In the case of `CCCCCCCCCc1ccc(C2COC(c3c(F)cccc3F)=N2)c(OC)c1` (stereo unspecified), the mortality at 500 ppm in assay [1] is 100%; in assay [2], 10%; in assay [3], 100%. Further, in assay [4], the LC50 turned out to be 0.001 µg/mL (≈ 0.00241 µM).
On to `C[S+]([O-])c1ccc(C2COC(c3c(F)cccc3F)=N2)cc1` (stereo unspecified), for which the mortality at 500 ppm came to 60% in assay [1], 0% in assay [2] and 60% in assay [3]. Moreover, the median lethal concentration (LC50) in assay [4] worked out at 10 µg/mL (≈ 31.1 µM).
`CCCCCc1ccc(C2COC(c3c(F)cccc3F)=N2)c(OCCC)c1` (stereo unspecified): the mortality at 500 ppm came out at 85% in assay [1], 60% in assay [2] and 85% in assay [3]. In addition, the median lethal concentration (LC50) in assay [4] stood at 0.001 µg/mL (≈ 0.00258 µM).
Regarding `Cc1ccc(C2COC(c3c(F)cccc3F)=N2)c(C)c1` (stereo unspecified), the values for the mortality at 500 ppm in assay [1], in assay [2] and in assay [3] were 35%, 100% and 100%, respectively. Moreover, the LC50 in assay [4] stood at 10 µg/mL (≈ 34.8 µM).
With `Cc1ccc(C2COC(c3c(F)cccc3F)=N2)cc1C` (stereo unspecified), the mortality at 500 ppm was found to be 0% in assay [1], 85% in assay [2] and 100% in assay [3]. Moreover, the 50% lethal concentration (LC50) in assay [4] turned out to be 1 µg/mL (≈ 3.48 µM).
In the case of `Fc1cccc(F)c1C1=NC(c2ccc(OCC(F)(F)F)cc2)CO1` (stereo unspecified), the mortality at 500 ppm in assay [1] was 35%; in assay [2], 100%; in assay [3] it was 100%. Also, the LC50 in assay [4] is under 0.001 µg/mL.
Turning to `CC(C)Oc1ccc(C2COC(c3c(F)cccc3F)=N2)cc1` (stereo unspecified), the mortality at 500 ppm in assay [1] worked out at 0%; in assay [2], 0%; in assay [3] it was 100%. In addition, in assay [4], the LC50 was 0.001 µg/mL (≈ 0.00315 µM).
On to `CCCCCCCCCCc1ccc(C2COC(c3c(F)cccc3F)=N2)cc1` (stereo unspecified), for which the mortality at 500 ppm in assay [1] worked out at 100%; in assay [2], 0%; in assay [3] it was 85%. In assay [4], the LC50 is under 0.001 µg/mL.
Regarding `CCCOc1cc(C(C)C)ccc1C1COC(c2c(F)cccc2F)=N1` (stereo unspecified), the mortality at 500 ppm in assay [1] is 85%; in assay [2], 100%; in assay [3] it was 100%. For the same molecule, the LC50 in assay [4] is under 0.001 µg/mL.
In the case of `CCCCCCCCCCOc1ccc(C2COC(c3c(F)cccc3F)=N2)cc1` (stereo unspecified), the mortality at 500 ppm in assay [1] is 100%; in assay [2] it was 10%; in assay [3], 100%. In addition, the LC50 in assay [4] is under 0.001 µg/mL.
As to `Fc1cccc(F)c1C1=NC(c2ccccc2Cl)CO1` (stereo unspecified), the figures for the mortality at 500 ppm in assay [1], in assay [2] and in assay [3] were 35%, 85% and 100%, respectively. Besides, the LC50 in assay [4] worked out at 0.1 µg/mL (≈ 0.34 µM).
With `Fc1cccc(F)c1C1=NC(c2ccc(Cl)cc2)CO1` (stereo unspecified), the mortality at 500 ppm was 0% in assay [1], 60% in assay [2] and 0% in assay [3]. In addition, the LC50 in assay [4] worked out at 0.001 µg/mL (≈ 0.0034 µM).
In the case of `Fc1ccc(C2COC(c3c(F)cccc3F)=N2)cc1F` (stereo unspecified), the mortality at 500 ppm in assay [1], in assay [2] and in assay [3] was 0% in each case. Further, the LC50 in assay [4] was determined as 0.1 µg/mL (≈ 0.339 µM).
As for `CCCCCCCCCCCCCOc1ccc(C2COC(c3c(F)cccc3F)=N2)cc1` (stereo unspecified), the mortality at 500 ppm in assay [1] worked out at 35%; in assay [2], 0%; in assay [3] it was 85%. Also, the median lethal concentration (LC50) in assay [4] was found to be 0.001 µg/mL (≈ 0.00219 µM).
Consider `CCCCCCCc1ccc(C2COC(c3c(F)cccc3F)=N2)c(F)c1` (stereo unspecified), for which the values for the mortality at 500 ppm in assay [1], in assay [2] and in assay [3] were 100%, 0% and 100%, respectively. The 50% lethal concentration (LC50) in assay [4] was under 0.001 µg/mL.
Take `CC(C)Cc1ccc(C2COC(c3c(F)cccc3F)=N2)c(Cl)c1` (stereo unspecified): the mortality at 500 ppm in assay [1] is 100%; in assay [2], 60%; in assay [3] it was 100%. Besides, in assay [4], the LC50 was under 0.001 µg/mL.
